# In the supplement of paper PMC8671470:
# ± gives the standard deviation of the averaged measurements.
# Tests used:
# HL-60 [1] = experiment: cell viability (% survival relative to DMSO control); higher = less cytotoxic; conditions: 72 h
# Method in brief: (§1)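 HL-60 cells in RPMI 1640 with 10% FBS were rescreened against the full library on 384-well plates at five tenfold concentrations, 1–10,000 nM, in duplicate. Each screen was run with DMSO or 100 nM of one of three metabolic inhibitors, for 72 h at 37 °C, 5% CO2. Viability was read by CellTiter-Glo and normalised to DMSO and 10 μM proteasome-inhibitor wells. Where given, area under the curve came from four-parameter log-logistic fits (drc, PharmacoGx).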
# HL-60 [2] = experiment: area under dose-response curve (viability, 1 nM-10 uM) (fraction (0-1)); higher = more sensitive; conditions: 72 h
# Method in brief: as §1
# [3] = 0.001 µM, co-treatment: AZD3965 100 nM
# [4] = 0.001 µM, co-treatment: DMSO vehicle
# [5] = 0.001 µM, co-treatment: GSK2194069 100 nM
# [6] = 0.001 µM, co-treatment: pictilisib 100 nM
# [7] = 0.01 µM, co-treatment: AZD3965 100 nM
# [8] = 0.01 µM, co-treatment: DMSO vehicle
# [9] = 0.01 µM, co-treatment: GSK2194069 100 nM
# [10] = 0.01 µM, co-treatment: pictilisib 100 nM
# [11] = 0.1 µM, co-treatment: AZD3965 100 nM
# [12] = 0.1 µM, co-treatment: DMSO vehicle
# [13] = 0.1 µM, co-treatment: GSK2194069 100 nM
# [14] = 0.1 µM, co-treatment: pictilisib 100 nM
# [15] = 1 µM, co-treatment: AZD3965 100 nM
# [16] = 1 µM, co-treatment: DMSO vehicle
# [17] = 1 µM, co-treatment: GSK2194069 100 nM
# [18] = 1 µM, co-treatment: pictilisib 100 nM
# [19] = 10 µM, co-treatment: AZD3965 100 nM
# [20] = 10 µM, co-treatment: DMSO vehicle
# [21] = 10 µM, co-treatment: GSK2194069 100 nM
# [22] = 10 µM, co-treatment: pictilisib 100 nM
# [23] = co-treatment: GSK2194069 100 nM
# [24] = co-treatment: pictilisib 100 nM
Structure (SMILES),cell viability (HL-60 [1]; [3]),cell viability (HL-60 [1]; [4]),cell viability (HL-60 [1]; [5]),cell viability (HL-60 [1]; [6]),cell viability (HL-60 [1]; [7]),cell viability (HL-60 [1]; [8]),cell viability (HL-60 [1]; [9]),cell viability (HL-60 [1]; [10]),cell viability (HL-60 [1]; [11]),cell viability (HL-60 [1]; [12]),cell viability (HL-60 [1]; [13]),cell viability (HL-60 [1]; [14]),cell viability (HL-60 [1]; [15]),cell viability (HL-60 [1]; [16]),cell viability (HL-60 [1]; [17]),cell viability (HL-60 [1]; [18]),cell viability (HL-60 [1]; [19]),cell viability (HL-60 [1]; [20]),cell viability (HL-60 [1]; [21]),cell viability (HL-60 [1]; [22]),area under dose-response curve (HL-60 [2]; co-treatment: AZD3965 100 nM),area under dose-response curve (HL-60 [2]; co-treatment: DMSO vehicle),area under dose-response curve (HL-60 [2]; [23]),area under dose-response curve (HL-60 [2]; [24])
CC(C)(F)C[C@H](N[C@@H](c1ccc(-c2ccc(S(C)(=O)=O)cc2)cc1)C(F)(F)F)C(=O)NC1(C#N)CC1 [Odanacatib],99.32 ± 0.47%,95.8 ± 6.7%,80.8 ± 23%,66.7 ± 44%,95.1 ± 11%,98.4 ± 1.8%,89.4 ± 3.8%,112 ± 12%,102 ± 1.2%,100 ± 1.1%,97.1 ± 2.8%,94.9 ± 22%,96.26 ± 0.29%,95 ± 8.3%,90 ± 7.7%,96.43 ± 0.2%,101 ± 3.8%,97.6 ± 0.99%,89.3 ± 6%,90 ± 15%,< 0.0301,< 0.0301,< 0.0301,< 0.0301
Cn1c2cc(S(C)=O)sc2c2cnn(Cc3cccc(N)c3)c(=O)c21 (stereo unspecified) [TEPP-46],98.7 ± 1.3%,99.6 ± 1.3%,97.7 ± 7.9%,87.3 ± 9.9%,108 ± 2.5%,103 ± 3.2%,106 ± 4.1%,106 ± 5.4%,113 ± 11%,104 ± 1.1%,97.1 ± 18%,112 ± 6%,102 ± 1.3%,104 ± 1.1%,104 ± 7%,98.02 ± 0.85%,100 ± 3.8%,107 ± 3.7%,101 ± 1.6%,95.3 ± 2.4%,< 0.0301,< 0.0301,< 0.0301,< 0.0301
O=C1N[C@@H]2[C@@H](O)[C@@H](O)[C@H](O)[C@@H](CO)N2C1=O [Kifunensine],93.1 ± 5.7%,96.82 ± 0.8%,95.7 ± 6.9%,85.7 ± 3.2%,81.8 ± 28%,99.24 ± 0.24%,79.8 ± 27%,112 ± 7.8%,101 ± 2.2%,103 ± 3.2%,101 ± 1.8%,95.7 ± 2.5%,99.3 ± 1.2%,101 ± 3.6%,91.23 ± 0.73%,104 ± 2.7%,108 ± 4.8%,108 ± 1.7%,91.9 ± 9.2%,111.3 ± 0.3%,< 0.0301,< 0.0301,< 0.0301,< 0.0301
Cc1nc(-c2ccc(OCC(C)C)c(C#N)c2)sc1C(=O)O [Febuxostat],96.8 ± 1%,96.5 ± 3.3%,99.9 ± 2.2%,98.2 ± 2.1%,104 ± 1.1%,99.3 ± 3.9%,93.2 ± 8%,100 ± 2.6%,104 ± 1.4%,103 ± 5.2%,94.47 ± 0.83%,107 ± 7.7%,98.3 ± 3%,95.6 ± 1.8%,95.2 ± 2.4%,95.4 ± 1.8%,98.16 ± 0.3%,104.8 ± 0.8%,98.7 ± 3.6%,96 ± 4.1%,0.0351,< 0.0301,< 0.0301,0.0462
C[C@H]1O[C@H](O[C@H]2[C@H](O)[C@@H](O)[C@@H](O[C@H]3[C@H](O)[C@@H](O)C(O)O[C@@H]3CO)O[C@@H]2CO)[C@H](O)[C@@H](O)[C@@H]1N[C@H]1C=C(CO)[C@@H](O)[C@H](O)[C@H]1O (mixture of isomers) [Acarbose],112.2 ± 0.44%,100.2 ± 1%,108.6 ± 0.84%,105 ± 15%,96.77 ± 0.55%,98.3 ± 3.1%,98.7 ± 7.9%,104 ± 10%,99 ± 1.9%,102 ± 3.2%,97.7 ± 2.8%,101 ± 5.1%,99.3 ± 1%,104 ± 1.1%,92.59 ± 0.43%,96.9 ± 3.6%,88.1 ± 3.5%,97.771 ± 0.0011%,97.3 ± 3%,102.6 ± 0.5%,< 0.0301,< 0.0301,< 0.0301,< 0.0301
N#Cc1ccc(C2CCCc3cncn32)cc1 (stereo unspecified) [Fadrozole],99.99 ± 0.4%,103 ± 3.8%,105 ± 7.6%,103 ± 6%,98.614 ± 0.083%,101 ± 1.2%,97.3 ± 4.8%,101 ± 3.5%,101 ± 12%,104 ± 5.4%,101 ± 17%,113 ± 24%,96.8 ± 2.8%,100 ± 0.66%,112 ± 3%,113 ± 6.1%,98.7 ± 3%,102.2 ± 0.98%,100 ± 1.6%,107 ± 15%,< 0.0301,< 0.0301,< 0.0301,< 0.0301
CC(C)c1ccc2c(c1)c(SC(C)(C)C)c(CC(C)(C)C(=O)O)n2Cc1ccc(Cl)cc1 [MK-886],105 ± 4.8%,103 ± 0.78%,104 ± 2.2%,105 ± 12%,95.8 ± 12%,99.9 ± 1.5%,98.8 ± 5.2%,98.1 ± 1.9%,108 ± 7.9%,104.5 ± 0.84%,105 ± 13%,109 ± 11%,99.8 ± 2%,107 ± 2.3%,97.5 ± 1.7%,98.9 ± 5.2%,102 ± 3.9%,109.9 ± 1%,94.4 ± 7.3%,108 ± 2.2%,< 0.0301,< 0.0301,< 0.0301,< 0.0301
CN(C)C(=O)n1nnnc1Cc1ccc(-c2ccccc2)cc1,91.3 ± 21%,97.5 ± 6%,101 ± 18%,96.2 ± 1.6%,99.6 ± 3.9%,99.54 ± 0.76%,96.8 ± 5.8%,93.4 ± 2.5%,103 ± 4.8%,101 ± 2.4%,104 ± 1.8%,100 ± 1.6%,105 ± 0.8%,101.1 ± 0.28%,109 ± 14%,104 ± 2.9%,6.18 ± 1.4%,6.81 ± 0.78%,6.62 ± 1.1%,5 ± 0.78%,0.113,0.116,0.108,0.116
CN1CC(=O)N2[C@H](c3ccc4c(c3)OCO4)c3[nH]c4ccccc4c3C[C@@H]2C1=O [Tadalafil],104 ± 3.4%,100.5 ± 0.71%,101.9 ± 0.6%,99.6 ± 3%,105.1 ± 0.41%,103 ± 3.7%,106 ± 1.3%,94.8 ± 7.5%,97.6 ± 2.9%,98 ± 8.3%,102 ± 1.4%,96.9 ± 3.5%,104 ± 1.3%,100 ± 1.4%,105 ± 1.2%,93.4 ± 7.5%,109 ± 1.1%,112 ± 6.6%,95.2 ± 2.1%,89.9 ± 8.3%,< 0.0301,< 0.0301,< 0.0301,< 0.0301
O=NN(CCCl)C(=O)NCCCl [Carmustine],95.3 ± 1.7%,96.8 ± 3.4%,89.9 ± 1.6%,86.1 ± 8.4%,95 ± 12%,102 ± 6%,97.4 ± 11%,83.1 ± 1.1%,99.5 ± 3.9%,100.48 ± 0.1%,98.9 ± 2.9%,110 ± 7.2%,98.8 ± 5.9%,97.8 ± 1%,97.5 ± 2.7%,93.7 ± 4.2%,100.8 ± 0.83%,105 ± 3.5%,104 ± 9.1%,118 ± 24%,< 0.0301,< 0.0301,< 0.0301,< 0.0301
NCc1ccc(S(N)(=O)=O)cc1 [4-Homosulfanilamide],102 ± 3.3%,103.6 ± 0.27%,101 ± 4.4%,98.6 ± 3.8%,106 ± 5.2%,105 ± 4.4%,103 ± 6.2%,107 ± 3.1%,99.06 ± 0.68%,100 ± 3.1%,98.5 ± 5.5%,97.5 ± 1.2%,95.9 ± 1.2%,101 ± 2.8%,96.9 ± 4.6%,95.5 ± 8.2%,99.2 ± 4.8%,96.4 ± 2%,97.5 ± 5.8%,98.3 ± 6.2%,< 0.0301,< 0.0301,< 0.0301,< 0.0301
O=C(CCl)N(CCCNC(=O)C(F)(F)F)c1ccc([N+](=O)[O-])cc1 [ML175],103 ± 2.1%,104 ± 5.9%,100 ± 1.6%,101 ± 6.9%,100 ± 1.6%,103 ± 1.5%,92.97 ± 0.7%,94.4 ± 3.7%,102.27 ± 0.062%,99.79 ± 0.16%,98.3 ± 4.5%,98.5 ± 3.1%,104 ± 5.7%,99.8 ± 6%,95.2 ± 5.3%,95.1 ± 3.8%,0.129 ± 0.42%,-1.45 ± 0.48%,-1.73 ± 0.33%,1.1 ± 1.7%,0.125,0.133,0.14,0.136
O=[As]O[As]=O (stereo unspecified) [Arsenic trioxide],103 ± 2.1%,98.8 ± 1.9%,102 ± 5.6%,94.24 ± 0.0034%,101.5 ± 0.8%,100 ± 1.3%,99.1 ± 4.6%,101 ± 4.8%,98.7 ± 1.7%,97.29 ± 0.59%,98.8 ± 2.5%,93.6 ± 4.6%,102 ± 4%,100.5 ± 0.47%,99.11 ± 0.97%,98.5 ± 6.7%,82.7 ± 1.2%,96.7 ± 6.6%,87.09 ± 0.7%,63.4 ± 0.69%,< 0.0301,< 0.0301,< 0.0301,< 0.0301
CC(=O)N[C@@H](CS)C(=O)O [Acetylcysteine],99.1 ± 8%,94.2 ± 10%,97.8 ± 8.2%,103 ± 9.8%,99.8 ± 1.2%,101.13 ± 0.024%,103 ± 1.7%,101.2 ± 0.78%,105 ± 6.2%,104 ± 5.7%,106 ± 5.4%,106 ± 1.6%,102 ± 6.2%,96.1 ± 8.7%,101 ± 4.8%,101 ± 7.9%,91.6 ± 1%,93.7 ± 4.5%,91.4 ± 4.3%,86.3 ± 9.3%,< 0.0301,< 0.0301,< 0.0301,< 0.0301
CCCC(CCC)C(=O)O [Valproic acid],101.96 ± 0.094%,102 ± 4.8%,95.2 ± 3%,98.6 ± 5.1%,103 ± 2.8%,99.9 ± 6%,106 ± 14%,101 ± 8.1%,94.7 ± 4.1%,98.5 ± 2.7%,98.1 ± 1.8%,95 ± 1.9%,97.8 ± 5.3%,96.68 ± 0.64%,93.9 ± 13%,89.6 ± 5.2%,106 ± 7.5%,105 ± 4.8%,106 ± 4.2%,101 ± 6.5%,,,,
OCC(CO)N[C@H]1C[C@](O)(CO)[C@@H](O)[C@H](O)[C@H]1O [Voglibose],96.2 ± 11%,99.5 ± 2.6%,104 ± 19%,113 ± 7.6%,103 ± 2.7%,99.9 ± 7%,104 ± 7.5%,112 ± 7.8%,100 ± 4.9%,100 ± 5.8%,104 ± 3.5%,106 ± 12%,96.5 ± 4.9%,99.4 ± 2.4%,79.9 ± 24%,81.9 ± 38%,93.58 ± 0.69%,99.5 ± 1.4%,97.3 ± 1.8%,99.1 ± 1.8%,,,,
